Source: EPA's ToxRefDB 2

What was measured:
[1] = test system: rat; conditions: Subchronic oral toxicity in rodents, other, Feed, dose end: 90 day, group: systemic
[2] = test system: mouse; conditions: Subchronic oral toxicity in rodents, cd1, Feed, dose end: 90 day, group: systemic
[3] = test system: rat; conditions: Subchronic oral toxicity in rodents, other, Feed, dose end: 90 day, group: systemic; remark: listed apart in the source
[4] = test system: mouse; conditions: Carcinogenicity, cd1, Oral, Feed, dose end: 78 week, group: systemic
[5] = test system: dog; conditions: Subchronic oral toxicity in nonrodent, beagle, Capsule, dose end: 96 day, group: systemic
[6] = test system: dog; conditions: Chronic toxicity, beagle, Oral, Capsule, dose end: 52 week, group: systemic
[7] = test system: rat; conditions: Prenatal developmental toxicity study, fischer, Oral, Gavage/Intubation, dose end: 15 GD
[8] = test system: rat; conditions: Multigenerational reproductive toxicity study, fischer, Oral, Feed, dose end: 3 generation
[9] = test system: mouse; conditions: Subchronic oral toxicity in rodents, b6c3f1, Feed, dose end: 13 week, group: systemic, systemic / in life observation / body weight / body weight gain
[10] = test system: rabbit; conditions: Prenatal developmental toxicity study, new zealand white, Oral, Gavage/Intubation, dose end: 28 GD
[11] = test system: rat; conditions: Combined chronic toxicity/carcinogenicity; fischer; Oral; Feed; dose end: 2 year; group: systemic; systemic / in life observation / body weight / body weight + systemic / in life observation / body weight / body weight gain
[12] = test system: mouse; conditions: Carcinogenicity; b6c3f1; Oral; Feed; dose end: 2 year; group: systemic; systemic / in life observation / body weight / body weight
[13] = test system: rat; conditions: Subchronic oral toxicity in rodents, fischer, Feed, dose end: 13 week, group: systemic
[14] = systemic / in life observation / clinical signs / abdominogenital staining + systemic / in life observation / clinical signs / urinary …
[15] = systemic / in life observation / clinical signs / abdominogenital staining + systemic / in life observation / water consumption / water …
[16] = systemic / pathology microscopic / liver / vacuolization
[17] = systemic / pathology microscopic / liver / vacuolization + systemic / hematology / erythrocyte (rbc) count differential / erythrocyte (rbc…
[18] = systemic / organ weight / spleen / relative to body weight
[19] = systemic / hematology / erythrocyte (rbc) count differential / erythrocyte (rbc) + systemic / hematology / hematocrit (hct) / hematocrit (…
[20] = systemic / in life observation / body weight / body weight gain + systemic / in life observation / food consumption / food efficiency
[21] = systemic / in life observation / body weight / body weight gain + systemic / in life observation / food consumption / food efficiency + …
[22] = systemic / in life observation / body weight / body weight gain
[23] = group: developmental, developmental / developmental malformation / general / crown-rump length + developmental / offspring survival late / viability index / …
[24] = group: maternal, systemic / in life observation / clinical signs / blood around eyes and nose + systemic / in life observation / clinical signs / emaciation…
[25] = group: offspring, systemic / in life observation / body weight / offspring (pup) weight
[26] = group: offspring, systemic / in life observation / body weight / offspring (pup) weight + systemic / organ weight / kidney / absolute
[27] = group: parental, systemic / in life observation / body weight / body weight + systemic / pathology microscopic / kidney / casts + systemic / pathology …
[28] = group: developmental, systemic / in life observation / body weight / fetal weight
[29] = group: maternal, systemic / in life observation / body weight / body weight gain + systemic / in life observation / clinical signs / alopecia + systemic / in…

CCOC(=O)COc1cc(-n2ncc(C(F)(F)F)c(C)c2=O)c(F)cc1Cl [Flufenpyr-ethyl]
LOAEL [1, 14]: 595 mg/kg/day | NOAEL [1, 14]: 55 mg/kg/day | LEL [1, 15]: 55 mg/kg/day | NEL [1, 15]: < 55 mg/kg/day | LEL [2, 16]: 395 mg/kg/day | LOAEL [2, 16]: 395 mg/kg/day | NEL [2, 17]: 128 mg/kg/day | NOAEL [2, 17]: 128 mg/kg/day | LOAEL ([3]; systemic / in life observation / clinical signs / body surface staining + systemic / in life observation / clinical signs / urinary …): 414 mg/kg/day | LEL [3, 18]: 39 mg/kg/day | NEL [3, 18]: < 39 mg/kg/day | NOAEL ([3]; systemic / organ weight / spleen / relative to body weight + systemic / in life observation / clinical signs / body surface staining + …): 134 mg/kg/day | LOAEL [4, 19]: 402 mg/kg/day | NOAEL [4, 19]: 39.9 mg/kg/day | LEL [4, 16]: 397 mg/kg/day | NEL [4, 16]: 43.5 mg/kg/day | LOAEL [5, 20]: 1000 mg/kg/day | LEL [5, 21]: 100 mg/kg/day | NEL [5, 21]: < 100 mg/kg/day | NOAEL [5, 21]: 300 mg/kg/day | LOAEL [6, 22]: 1000 mg/kg/day | LEL [6, 20]: 200 mg/kg/day | NEL [6, 20]: 50 mg/kg/day | NOAEL [6, 20]: 200 mg/kg/day

O=C1CCCCCN1 [Caprolactam]
LEL [7, 23]: 1000 mg/kg/day | LOAEL [7, 23]: > 1000 mg/kg/day | NEL [7, 23]: 500 mg/kg/day | NOAEL [7, 23]: ≥ 1000 mg/kg/day | LEL [7, 24]: 100 mg/kg/day | LOAEL [7, 24]: > 1000 mg/kg/day | NEL [7, 24]: < 100 mg/kg/day | NOAEL [7, 24]: ≥ 1000 mg/kg/day | LEL [8, 25]: 250 mg/kg/day | NEL [8, 25]: 50 mg/kg/day | LOAEL [8, 26]: > 500 mg/kg/day | NOAEL [8, 26]: ≥ 500 mg/kg/day | NEL ([8]; group: parental, systemic / in life observation / body weight / body weight): 250 mg/kg/day | LEL [8, 27]: 500 mg/kg/day | LOAEL [8, 27]: > 500 mg/kg/day | NOAEL [8, 27]: ≥ 500 mg/kg/day | LEL [9]: 750 mg/kg/day | LOAEL [9]: 750 mg/kg/day | NEL [9]: < 750 mg/kg/day | NOAEL [9]: < 750 mg/kg/day | LEL [10, 28]: 150 mg/kg/day | LOAEL [10, 28]: > 250 mg/kg/day | NEL [10, 28]: 50 mg/kg/day | NOAEL [10, 28]: ≥ 250 mg/kg/day | LEL ([10]; group: maternal, systemic / in life observation / body weight / body weight gain): 150 mg/kg/day | LOAEL [10, 29]: > 250 mg/kg/day | NEL [10, 29]: 50 mg/kg/day | NOAEL [10, 29]: ≥ 250 mg/kg/day | LEL [11]: 188 mg/kg/day | LOAEL [11]: 188 mg/kg/day | NEL [11]: < 188 mg/kg/day | NOAEL [11]: < 188 mg/kg/day | LEL [12]: 1120 mg/kg/day | LOAEL [12]: 1120 mg/kg/day | NEL [12]: < 1120 mg/kg/day | NOAEL [12]: < 1120 mg/kg/day | LEL [13, 22]: 31 mg/kg/day | LOAEL [13, 22]: 125 mg/kg/day | NEL [13, 22]: < 31 mg/kg/day | NOAEL ([13]; systemic / in life observation / body weight / body weight gain + systemic / in life observation / food consumption / food consumption): 63 mg/kg/day
